{"source": "paper PMC5642477", "about": "“Phosphodiesterase 10A is overexpressed in lung tumor cells and inhibitors selectively suppress growth by blocking β-catenin and MAPK signaling” (Oncotarget, 2017)", "key": {"[1]": {"test_system": "PKG activation in H1299 cells", "experiment": "Western blotting, PKG activation (pSer239-VASP)", "format": "cell-based, human", "protocol": "Whole cell extraction was performed according to a previously described method using cell lysing buffer (Cell Signaling) supplemented with 10 mmol/L NaF for protein phosphorylation studies. Cell lysates were separated by 4-12% gradient, 7% or 10% pre-casting PAGE (Novex/Invitrogen) followed by electrophoretic transfer to a nitrocellulose membrane. Western blotting procedures were performed using Chemiluminescence Reagent (Pierce) and visualized using Chemi Doc Imaging System (BioRad)."}, "PDE8A": {"target": "PDE8A (Homo sapiens, UniProt O60658)", "sequence (O60658 whole entry)": "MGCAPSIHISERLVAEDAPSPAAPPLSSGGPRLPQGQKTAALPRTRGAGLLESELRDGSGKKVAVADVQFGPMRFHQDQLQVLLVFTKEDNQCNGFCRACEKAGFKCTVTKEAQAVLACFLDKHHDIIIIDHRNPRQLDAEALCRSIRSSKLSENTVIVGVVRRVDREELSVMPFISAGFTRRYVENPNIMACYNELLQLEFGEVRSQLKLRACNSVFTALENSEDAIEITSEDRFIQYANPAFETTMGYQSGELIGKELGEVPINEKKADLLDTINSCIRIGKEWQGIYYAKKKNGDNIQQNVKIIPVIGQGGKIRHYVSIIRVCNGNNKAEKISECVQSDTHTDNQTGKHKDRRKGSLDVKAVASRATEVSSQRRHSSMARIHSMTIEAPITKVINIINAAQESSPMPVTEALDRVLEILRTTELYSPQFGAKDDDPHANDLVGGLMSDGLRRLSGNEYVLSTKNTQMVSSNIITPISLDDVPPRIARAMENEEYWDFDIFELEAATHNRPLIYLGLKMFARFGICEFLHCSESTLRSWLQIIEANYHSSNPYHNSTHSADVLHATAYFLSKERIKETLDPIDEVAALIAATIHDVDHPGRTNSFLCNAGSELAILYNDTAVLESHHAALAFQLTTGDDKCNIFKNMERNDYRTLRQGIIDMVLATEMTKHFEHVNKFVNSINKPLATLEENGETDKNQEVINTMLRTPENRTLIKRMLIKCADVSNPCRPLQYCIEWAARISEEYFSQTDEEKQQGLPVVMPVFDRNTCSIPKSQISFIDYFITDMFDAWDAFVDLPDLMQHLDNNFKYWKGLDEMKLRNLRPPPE", "experiment": "IMAP fluorescence polarization PDE assay, recombinant PDE isozymes", "format": "biochemical", "design": "key: Inactive: >100 µmol/L shows no inhibition", "conditions": "substrate cAMP", "protocol": "(§1) The enzymatic activity of recombinant PDE or PDE activities in cell lysates were measured using the IMAP fluorescence polarization (FP) PDE assay (Molecular Devices) as previously described. PDE10 inhibitors and DMSO as the vehicle were added to assay buffer 10 minutes before the incubation with the enzyme reaction. Fluorescence polarization values were measured using Synergy H4 Hybrid Reader (BioTek)."}, "PDE7A": {"target": "PDE7A (Homo sapiens, UniProt Q13946)", "sequence (Q13946 whole entry)": "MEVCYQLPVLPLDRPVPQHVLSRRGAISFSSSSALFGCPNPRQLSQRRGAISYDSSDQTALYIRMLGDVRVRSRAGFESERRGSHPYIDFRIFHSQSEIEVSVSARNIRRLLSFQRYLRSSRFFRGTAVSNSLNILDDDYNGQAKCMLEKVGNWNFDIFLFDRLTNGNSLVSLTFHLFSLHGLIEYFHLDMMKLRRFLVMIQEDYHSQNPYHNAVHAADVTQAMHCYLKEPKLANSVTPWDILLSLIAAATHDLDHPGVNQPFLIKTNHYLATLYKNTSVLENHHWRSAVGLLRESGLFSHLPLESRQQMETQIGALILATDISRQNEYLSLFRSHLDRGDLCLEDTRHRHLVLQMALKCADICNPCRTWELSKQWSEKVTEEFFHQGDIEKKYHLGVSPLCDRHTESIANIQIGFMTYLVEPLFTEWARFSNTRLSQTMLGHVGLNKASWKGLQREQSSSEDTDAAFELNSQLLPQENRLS", "experiment": "IMAP fluorescence polarization PDE assay, recombinant PDE isozymes", "format": "biochemical", "design": "key: Inactive: >100 µmol/L shows no inhibition", "conditions": "substrate cAMP", "protocol": "as §1"}, "PDE9A": {"target": "PDE9A (Homo sapiens, UniProt O76083)", "sequence (O76083 whole entry)": "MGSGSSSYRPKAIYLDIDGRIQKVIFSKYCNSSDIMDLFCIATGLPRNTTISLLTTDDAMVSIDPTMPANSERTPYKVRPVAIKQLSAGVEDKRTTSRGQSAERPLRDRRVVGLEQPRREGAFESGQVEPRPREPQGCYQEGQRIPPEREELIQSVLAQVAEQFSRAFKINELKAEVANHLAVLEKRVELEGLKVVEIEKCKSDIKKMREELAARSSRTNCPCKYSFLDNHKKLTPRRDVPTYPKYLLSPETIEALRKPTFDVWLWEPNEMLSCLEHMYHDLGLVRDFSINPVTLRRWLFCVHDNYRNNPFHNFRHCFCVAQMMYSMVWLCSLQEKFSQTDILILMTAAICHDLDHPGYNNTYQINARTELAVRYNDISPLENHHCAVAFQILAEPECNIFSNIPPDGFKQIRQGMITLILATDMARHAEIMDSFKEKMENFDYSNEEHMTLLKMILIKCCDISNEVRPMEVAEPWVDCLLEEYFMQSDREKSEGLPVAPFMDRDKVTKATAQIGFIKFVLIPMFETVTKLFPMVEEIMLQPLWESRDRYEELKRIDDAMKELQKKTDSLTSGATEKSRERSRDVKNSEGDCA", "experiment": "IMAP fluorescence polarization PDE assay, recombinant PDE isozymes", "format": "biochemical", "design": "key: Inactive: >100 µmol/L shows no inhibition", "conditions": "substrate cGMP", "protocol": "as §1"}, "PDE6A/B": {"test_system": "PDE6A/B", "experiment": "IMAP fluorescence polarization PDE assay, recombinant PDE isozymes", "format": "biochemical", "design": "key: Inactive: >100 µmol/L shows no inhibition", "conditions": "substrate cGMP", "protocol": "as §1"}, "[2]": {"test_system": "intracellular cGMP levels in H1299 cells", "experiment": "cGMP biosensor assay (luciferase)", "format": "cell-based, human", "conditions": "for EC50: Homo sapiens, NCI-H1299, H1299 biosensor cells, read-out: EC50 to induce cGMP elevation", "protocol": "(§2) Stable cell lines with an expression of luciferase-based cGMP biosensor were established from H1299 NSCLC cells and HEK293 cells using a genetically encoded GAF-Luc construct (Promega), containing a cGMP-specific binding domain from human PDE5A GAF-A domain fused to modified firefly luciferase (35). Cells were pre-incubated at room temperature in CO2 independent media supplemented with 10% FBS and 5 mmol/L luciferin. For the measurement of intracellular cGMP levels, sodium nitroprusside (SNP) or C-type natriuretic peptide (CNP) in combination with PDE inhibitors were added to initiate the experiment and the increased luminescence values in live cells were detected constantly over a period time of 2 hours."}, "[3]": {"test_system": "intracellular cGMP levels in HEK293 cells", "experiment": "cGMP biosensor assay (luciferase)", "format": "cell-based, human", "protocol": "as §2"}}, "note": "Read-outs that look alike come from different tables or passages of the source.", "data": [{"smiles": "COc1cc2ncnc(N3CC[C@@H](Oc4cnc5ccccc5n4)C3)c2cc1OC", "note": "[PQ10]", "values": [{"measurement": "time to increase in pSer239-VASP levels", "setting": "[1]", "result": "≤ 30", "unit": "minutes"}, {"measurement": "IC50 of PQ10 cAMP", "setting": "PDE8A", "result": "Inactive"}, {"measurement": "IC50 of PQ10 cAMP", "setting": "PDE7A", "result": "Inactive"}, {"measurement": "IC50 of PQ10 cGMP", "setting": "PDE9A", "result": "Inactive"}, {"measurement": "IC50 of PQ10 cGMP", "setting": "PDE6A/B", "result": "Inactive"}, {"measurement": "time to increase in cGMP levels", "setting": "[2]; H1299 biosensor cells, sustained to 2 hours", "result": "≤ 1", "unit": "h"}, {"measurement": "EC50", "setting": "[2]; CNP (100 nmol/L) stimulation", "result": 1310, "unit": "nM"}, {"measurement": "EC50", "setting": "[2]; SNP (100 µmol/L) stimulation", "result": 1720, "unit": "nM"}, {"measurement": "EC50", "setting": "[3]; Homo sapiens, HEK293 biosensor cells, SNP (100 µmol/L) stimulation, read-out: EC50 to induce cGMP elevation", "result": 5670, "unit": "nM"}, {"measurement": "EC50 fold higher in HEK293 than in H1299 biosensor cells", "setting": "[3]; SNP (100 µmol/L)", "result": "about 3.3 fold"}]}]}
